According to publication PMC5118696, “Identification of inhibitors that dually target the new permeability pathway and dihydroorotate dehydrogenase in the blood stage of Plasmodium falciparum” (Scientific Reports, 2016):

Test system: Hyp1-NLuc Plasmodium falciparum-infected erythrocytes (new permeability pathway, NPP)
Test: microbe, parasite or virus in culture
Settings: Erythrocyte, 0.33 h, read-out: Mean RLU at 28 min (As % of DMSO control)

For CCOc1ccc(Nc2ccnc3cc(Cl)ccc23)cc1 [MMV007285], which activity at 2 µM is on record?
The activity at 2 µM was 107%.

Cc1cc(N2CCN(C3CCCC3)CC2)n2c(nc3ccccc32)c1C#N [MMV006706] was tested. Which activity at 2 µM did it give?
Its activity at 2 µM is 118%.

Which activity at 2 µM does the source give for COc1cc(SC)ccc1C(=O)N1CCCC(C)C1 (stereo not shown) [MMV056726] here?
Its activity at 2 µM is 122%.

With COc1cccc(NC(=O)[C@H](C(C)C)n2c(=O)[nH]c3ccccc3c2=O)c1 [MMV665878] as the compound, how does the activity at 2 µM read?
The activity at 2 µM was 102%.

O=C(NCc1ccco1)C1CCN(S(=O)(=O)c2ccc(Br)cc2)CC1 [MMV007430] was tested. Which activity at 2 µM did it give?
The activity at 2 µM was 114%.

N=c1n(CCN2CCCCC2)c2ccccc2n1CC(=O)c1ccc(Cl)c(Cl)c1 [MMV396723] was tested. Which activity at 2 µM did it give?
The activity at 2 µM was 98.3%.

How did the activity at 2 µM turn out when O=C(Nc1ccc(Cl)cc1)N1CCN(c2ccc3nncn3n2)CC1 [MMV665917] was run?
The activity at 2 µM was 53.8%.

Which activity at 2 µM does the source give for Oc1ccc2ccccc2c1CNc1nc2ccccc2[nH]1 [MMV011832] here?
Its activity at 2 µM is 107%.

Which activity at 2 µM does the source give for O=C(NC1CCN(Cc2ccccc2)CC1)c1cc(-c2cccnc2)nc2ccc(Cl)cc12 [MMV020490] here?
The activity at 2 µM was 101%.

Which activity at 2 µM does the source give for Cc1cc(NCCN2CCCCC2)c2ccc3ccccc3c2n1 [MMV006203] here?
Its activity at 2 µM is 103%.

Which activity at 2 µM does the source give for CCOc1cc(Br)c(C(C)NC(=O)c2cccc(OC)c2)cc1OCC (stereo not shown) [MMV665796] here?
Its activity at 2 µM is 106%.

Which activity at 2 µM does the source give for COc1ccc2c(c1OC)C(=O)N1c3ccccc3N=C(c3ccc(C)cc3)CC21 (stereo not shown) [MMV000917] here?
The activity at 2 µM was 90.9%.

How did the activity at 2 µM turn out when COc1ccc(N2CCN(C(CNC(=O)C3CCCCC3)c3ccc4c(c3)OCO4)CC2)cc1 (stereo not shown) [MMV019662] was run?
Its activity at 2 µM is 103%.

Which activity at 2 µM does the source give for CCOc1cc2c(cc1OCC)C(c1cc(Cl)c(O)c(OCC)c1)NCC2 (stereo not shown) [MMV000481] here?
Its activity at 2 µM is 112%.

How did the activity at 2 µM turn out when CCOC(=O)c1cnc2ccc(OC)cc2c1NCc1ccccc1 [MMV665813] was run?
Its activity at 2 µM is 115%.

CC(C)(C)c1ccc(C2CC3=Nc4ccccc4N(C(=O)c4ccccc4Cl)C(c4ccc(F)cc4)C3=C(O)C2)cc1 (stereo not shown) [MMV011436] was tested. Which activity at 2 µM did it give?
Its activity at 2 µM is 106%.

Which activity at 2 µM does the source give for Cc1ccc(-c2cc3nc4c(c(O)n3n2)CCCC4)cc1 [MMV006937] here?
The activity at 2 µM was 100%.

For Cc1ccc(Nc2nc(N)c3ccccc3n2)cc1Cl [MMV011522], which activity at 2 µM is on record?
Its activity at 2 µM is 95.7%.

Which activity at 2 µM does the source give for CN1CCN(c2nc(Nc3ccc(O)cc3)nc3ccccc23)CC1 [MMV000986] here?
The activity at 2 µM was 102%.

Which activity at 2 µM does the source give for CCOc1c(Cl)cc(CNCC(O)c2ccccc2)cc1OC (stereo not shown) [MMV396632] here?
Its activity at 2 µM is 99.9%.

How did the activity at 2 µM turn out when CCOc1c(Br)cc(C2C(C(=O)OC)=CN(C)C=C2C(=O)OC)cc1OC [MMV006764] was run?
Its activity at 2 µM is 80.4%.

With CN1c2ccccc2N(C)C1c1ccc2c(c1)OCO2 [MMV666009] as the compound, how does the activity at 2 µM read?
The activity at 2 µM was 104%.

Which activity at 2 µM does the source give for COc1ccc(C)c2sc(N(Cc3cccnc3)C(=O)c3ccc(C#N)cc3)nc12 [MMV001241] here?
Its activity at 2 µM is 101%.

With COc1ccc(-c2nc(N3CCN(C(=O)C4CCCCC4)CC3)c3c4c(sc3n2)CCCC4)cc1 [MMV396594] as the compound, how does the activity at 2 µM read?
The activity at 2 µM was 88.9%.

Which activity at 2 µM does the source give for O=C(NC1CCCCC1)C(c1cccs1)N(CCc1ccccc1)C(=O)c1ccco1 (stereo not shown) [MMV666106] here?
Its activity at 2 µM is 96.6%.

CCN(CC)CCNc1ncnc2c1[nH]c1ccc(Cl)cc12 [MMV396703] was tested. Which activity at 2 µM did it give?
Its activity at 2 µM is 110%.

How did the activity at 2 µM turn out when Nc1nc(Nc2cccc(F)c2)nc2ccccc12 [MMV080034] was run?
The activity at 2 µM was 93.1%.

For O=C1c2ccccc2C2=Nc3ccccc3SC(c3cccc(F)c3)C12 (stereo not shown) [MMV006389], which activity at 2 µM is on record?
The activity at 2 µM was 98.3%.

CCOC(=O)c1cnc2c(CC)cccc2c1O [MMV498479] was tested. Which activity at 2 µM did it give?
Its activity at 2 µM is 103%.

How did the activity at 2 µM turn out when CC1CCN(Cc2c(O)ccc3cc(-c4nc5ccccc5s4)c(=O)oc23)CC1 [MMV009127] was run?
The activity at 2 µM was 101%.

Which activity at 2 µM does the source give for CCOc1ccc(C=Cc2nc(=O)c3ccccc3o2)cc1 [MMV665940] here?
Its activity at 2 µM is 61.5%.

Which activity at 2 µM does the source give for Oc1ccc(Cl)cc1CNc1nc2ccccc2[nH]1 [MMV665850] here?
The activity at 2 µM was 105%.

Oc1c2c(nc3ccccc13)CCCC2 [MMV665843] was tested. Which activity at 2 µM did it give?
Its activity at 2 µM is 109%.

For CC1CN(C(=O)c2sc3ccccc3c2Cl)CC(C)O1 (stereo not shown) [MMV020492], which activity at 2 µM is on record?
The activity at 2 µM was 103%.

Which activity at 2 µM does the source give for OCCNc1nc(Nc2ccc(Cl)c(Cl)c2)nc2ccccc12 [MMV001041] here?
The activity at 2 µM was 97.4%.

Test system: Hyp1-NLuc Plasmodium falciparum-infected erythrocytes (new permeability pathway, NPP)
Test: microbe, parasite or virus in culture
Settings: Erythrocyte, 0.33 h, read-out: % of control remaining

With CCOc1ccc(Nc2ccnc3cc(Cl)ccc23)cc1 [MMV007285] as the compound, how does the activity at 2 µM read?
The activity at 2 µM was 102%.

Which activity at 2 µM does the source give for Cc1cc(N2CCN(C3CCCC3)CC2)n2c(nc3ccccc32)c1C#N [MMV006706] here?
Its activity at 2 µM is 117%.

For COc1cc(SC)ccc1C(=O)N1CCCC(C)C1 (stereo not shown) [MMV056726], which activity at 2 µM is on record?
Its activity at 2 µM is 123%.

With COc1cccc(NC(=O)[C@H](C(C)C)n2c(=O)[nH]c3ccccc3c2=O)c1 [MMV665878] as the compound, how does the activity at 2 µM read?
The activity at 2 µM was 101%.

With O=C(NCc1ccco1)C1CCN(S(=O)(=O)c2ccc(Br)cc2)CC1 [MMV007430] as the compound, how does the activity at 2 µM read?
Its activity at 2 µM is 112%.

For N=c1n(CCN2CCCCC2)c2ccccc2n1CC(=O)c1ccc(Cl)c(Cl)c1 [MMV396723], which activity at 2 µM is on record?
Its activity at 2 µM is 91.7%.

With O=C(Nc1ccc(Cl)cc1)N1CCN(c2ccc3nncn3n2)CC1 [MMV665917] as the compound, how does the activity at 2 µM read?
Its activity at 2 µM is 27.3%.

Which activity at 2 µM does the source give for Oc1ccc2ccccc2c1CNc1nc2ccccc2[nH]1 [MMV011832] here?
Its activity at 2 µM is 102%.

Which activity at 2 µM does the source give for O=C(NC1CCN(Cc2ccccc2)CC1)c1cc(-c2cccnc2)nc2ccc(Cl)cc12 [MMV020490] here?
Its activity at 2 µM is 98.9%.

Cc1cc(NCCN2CCCCC2)c2ccc3ccccc3c2n1 [MMV006203] was tested. Which activity at 2 µM did it give?
Its activity at 2 µM is 99.9%.

Which activity at 2 µM does the source give for CCOc1cc(Br)c(C(C)NC(=O)c2cccc(OC)c2)cc1OCC (stereo not shown) [MMV665796] here?
Its activity at 2 µM is 115%.

COc1ccc2c(c1OC)C(=O)N1c3ccccc3N=C(c3ccc(C)cc3)CC21 (stereo not shown) [MMV000917] was tested. Which activity at 2 µM did it give?
Its activity at 2 µM is 94.9%.

COc1ccc(N2CCN(C(CNC(=O)C3CCCCC3)c3ccc4c(c3)OCO4)CC2)cc1 (stereo not shown) [MMV019662] was tested. Which activity at 2 µM did it give?
The activity at 2 µM was 114%.

With CCOc1cc2c(cc1OCC)C(c1cc(Cl)c(O)c(OCC)c1)NCC2 (stereo not shown) [MMV000481] as the compound, how does the activity at 2 µM read?
Its activity at 2 µM is 114%.

For CCOC(=O)c1cnc2ccc(OC)cc2c1NCc1ccccc1 [MMV665813], which activity at 2 µM is on record?
The activity at 2 µM was 114%.

Which activity at 2 µM does the source give for CC(C)(C)c1ccc(C2CC3=Nc4ccccc4N(C(=O)c4ccccc4Cl)C(c4ccc(F)cc4)C3=C(O)C2)cc1 (stereo not shown) [MMV011436] here?
The activity at 2 µM was 106%.

Which activity at 2 µM does the source give for Cc1ccc(-c2cc3nc4c(c(O)n3n2)CCCC4)cc1 [MMV006937] here?
Its activity at 2 µM is 58.4%.

Cc1ccc(Nc2nc(N)c3ccccc3n2)cc1Cl [MMV011522] was tested. Which activity at 2 µM did it give?
Its activity at 2 µM is 99.9%.

Which activity at 2 µM does the source give for CN1CCN(c2nc(Nc3ccc(O)cc3)nc3ccccc23)CC1 [MMV000986] here?
The activity at 2 µM was 101%.

Which activity at 2 µM does the source give for CCOc1c(Cl)cc(CNCC(O)c2ccccc2)cc1OC (stereo not shown) [MMV396632] here?
The activity at 2 µM was 101%.

For CCOc1c(Br)cc(C2C(C(=O)OC)=CN(C)C=C2C(=O)OC)cc1OC [MMV006764], which activity at 2 µM is on record?
Its activity at 2 µM is 85.8%.

CN1c2ccccc2N(C)C1c1ccc2c(c1)OCO2 [MMV666009] was tested. Which activity at 2 µM did it give?
Its activity at 2 µM is 114%.

COc1ccc(C)c2sc(N(Cc3cccnc3)C(=O)c3ccc(C#N)cc3)nc12 [MMV001241] was tested. Which activity at 2 µM did it give?
Its activity at 2 µM is 100%.

How did the activity at 2 µM turn out when COc1ccc(-c2nc(N3CCN(C(=O)C4CCCCC4)CC3)c3c4c(sc3n2)CCCC4)cc1 [MMV396594] was run?
The activity at 2 µM was 87.1%.

For O=C(NC1CCCCC1)C(c1cccs1)N(CCc1ccccc1)C(=O)c1ccco1 (stereo not shown) [MMV666106], which activity at 2 µM is on record?
The activity at 2 µM was 105%.

Which activity at 2 µM does the source give for CCN(CC)CCNc1ncnc2c1[nH]c1ccc(Cl)cc12 [MMV396703] here?
The activity at 2 µM was 99.7%.

With Nc1nc(Nc2cccc(F)c2)nc2ccccc12 [MMV080034] as the compound, how does the activity at 2 µM read?
Its activity at 2 µM is 94.5%.

For O=C1c2ccccc2C2=Nc3ccccc3SC(c3cccc(F)c3)C12 (stereo not shown) [MMV006389], which activity at 2 µM is on record?
The activity at 2 µM was 102%.

How did the activity at 2 µM turn out when CCOC(=O)c1cnc2c(CC)cccc2c1O [MMV498479] was run?
The activity at 2 µM was 107%.

For CC1CCN(Cc2c(O)ccc3cc(-c4nc5ccccc5s4)c(=O)oc23)CC1 [MMV009127], which activity at 2 µM is on record?
Its activity at 2 µM is 105%.

How did the activity at 2 µM turn out when CCOc1ccc(C=Cc2nc(=O)c3ccccc3o2)cc1 [MMV665940] was run?
Its activity at 2 µM is 31.3%.

For Oc1ccc(Cl)cc1CNc1nc2ccccc2[nH]1 [MMV665850], which activity at 2 µM is on record?
The activity at 2 µM was 110%.

Oc1c2c(nc3ccccc13)CCCC2 [MMV665843] was tested. Which activity at 2 µM did it give?
Its activity at 2 µM is 111%.

Which activity at 2 µM does the source give for CC1CN(C(=O)c2sc3ccccc3c2Cl)CC(C)O1 (stereo not shown) [MMV020492] here?
The activity at 2 µM was 102%.

OCCNc1nc(Nc2ccc(Cl)c(Cl)c2)nc2ccccc12 [MMV001041] was tested. Which activity at 2 µM did it give?
Its activity at 2 µM is 95.1%.
